From the NIST ThermoML archive (doi:10.1021/je501141e)
Several values for one entry are separate records, joined by “and”; a condition that tells them apart may be missing. Equal values may be shown once.

How the values were obtained:
[1] = 101.33 kPa, Liquid; for viscosity: Concentric cylinders viscometry; for speed of sound: Sing-around technique in a fixed-path interferometer; for mass density: Vibrating tube method
[2] = xn = mol fraction of the nth substance listed; settings: 100 kPa, Liquid, Concentric cylinders viscometry, x2 = 0

CC(CC(C)(C)C)CC(C)(C)CC(C)(C)C (configuration not stated) [2,2,4,4,6,8,8-heptamethylnonane]
[1]
Settings | mass density [kg/m3] | speed of sound [m/s] | viscosity
293.15 K | 784.48 | 1285.8 | 3.71 mPa·s
303.15 K | 777.78 | 1248.6 | 2.93 mPa·s
313.15 K | 771.07 | 1212 | 2.37 mPa·s
323.15 K | 764.34 | 1176.2 | 1.95 mPa·s
333.15 K | 757.59 | 1141 | 1.64 mPa·s
343.15 K | 750.83 | 1106.5 | 1.39 mPa·s
353.15 K | 743.9 | – | 1.19 mPa·s
363.15 K | 737 | – | 1.04 mPa·s
373.15 K | 730.2 | – | 0.91 mPa·s and 0.913 mPa·s

CC(CC(C)(C)C)CC(C)(C)C [2,2,4,6,6-pentamethylheptane]
[1]
Settings | mass density [kg/m3] | speed of sound [m/s] | viscosity
293.15 K | 745.21 | 1203.7 | 1.31 mPa·s
303.15 K | 737.93 | 1164.9 | 1.11 mPa·s
313.15 K | 730.61 | 1126.7 | 0.94 mPa·s and 0.948 mPa·s
323.15 K | 723.26 | 1089.3 | 0.82 mPa·s
333.15 K | 715.86 | 1052.6 | 0.715 mPa·s and 0.71 mPa·s
343.15 K | 708.42 | 1016.5 | 0.632 mPa·s and 0.63 mPa·s
353.15 K | 700.7 | – | 0.562 mPa·s and 0.56 mPa·s
363.15 K | 693.1 | – | 0.505 mPa·s and 0.5 mPa·s
373.15 K | 685.4 | – | 0.459 mPa·s and 0.45 mPa·s

CC(CC(C)(C)C)CC(C)(C)C [2,2,4,6,6-pentamethylheptane] + CC(CC(C)(C)C)CC(C)(C)CC(C)(C)C
[2]
Settings | viscosity [mPa·s]
293.15 K | 1.31
303.15 K | 1.11
313.15 K | 0.948
323.15 K | 0.82
333.15 K | 0.715
343.15 K | 0.632
353.15 K | 0.562
363.15 K | 0.505
373.15 K | 0.459
